Measurements as given in patent publication US12581252B2, “Substituted pyrrolo[3,4-b]pyridines as PI3K-α inhibitors” (Relay Therapeutics, Inc., priority 2020, dated 2026).

Key:
H1047R PIK3CA enzyme = H1047R PIK3CA enzyme (Homo sapiens, UniProt P42336, H1047R); experiment: ADP-Glo Biochemical PIK3CA Kinase Assay
cells = settings: Homo sapiens, MCF-10A, read-out: MCF10A IC50

H1047R PIK3CA enzyme, sequence (P42336 whole entry H1047R): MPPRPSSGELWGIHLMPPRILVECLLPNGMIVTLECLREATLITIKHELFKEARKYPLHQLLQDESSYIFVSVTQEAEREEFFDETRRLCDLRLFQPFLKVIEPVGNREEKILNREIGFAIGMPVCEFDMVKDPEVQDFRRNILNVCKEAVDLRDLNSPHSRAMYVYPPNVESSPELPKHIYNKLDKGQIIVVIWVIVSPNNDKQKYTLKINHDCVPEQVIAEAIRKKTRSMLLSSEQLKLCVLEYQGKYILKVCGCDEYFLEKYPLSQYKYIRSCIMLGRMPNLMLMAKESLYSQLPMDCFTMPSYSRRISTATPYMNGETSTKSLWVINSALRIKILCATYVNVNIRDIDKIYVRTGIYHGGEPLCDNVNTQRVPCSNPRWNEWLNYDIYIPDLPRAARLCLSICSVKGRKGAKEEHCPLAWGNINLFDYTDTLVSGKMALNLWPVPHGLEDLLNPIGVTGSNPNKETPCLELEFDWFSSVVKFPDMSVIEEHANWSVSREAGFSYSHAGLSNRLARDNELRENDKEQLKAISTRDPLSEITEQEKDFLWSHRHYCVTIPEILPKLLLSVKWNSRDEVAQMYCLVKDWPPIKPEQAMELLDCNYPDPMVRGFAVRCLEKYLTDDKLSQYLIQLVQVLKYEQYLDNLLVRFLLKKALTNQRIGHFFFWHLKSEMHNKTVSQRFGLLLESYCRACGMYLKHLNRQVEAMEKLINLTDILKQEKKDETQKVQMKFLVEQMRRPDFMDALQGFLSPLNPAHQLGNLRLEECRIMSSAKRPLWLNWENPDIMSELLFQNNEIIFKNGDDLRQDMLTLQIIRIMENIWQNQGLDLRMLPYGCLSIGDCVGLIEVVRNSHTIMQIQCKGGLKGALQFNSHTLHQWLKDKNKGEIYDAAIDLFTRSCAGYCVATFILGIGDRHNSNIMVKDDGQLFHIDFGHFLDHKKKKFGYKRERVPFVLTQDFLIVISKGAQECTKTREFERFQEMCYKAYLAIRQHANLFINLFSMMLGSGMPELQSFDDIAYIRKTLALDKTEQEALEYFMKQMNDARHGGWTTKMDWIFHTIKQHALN
H1047R PIK3CA enzyme, sequence (P27986 whole entry partner): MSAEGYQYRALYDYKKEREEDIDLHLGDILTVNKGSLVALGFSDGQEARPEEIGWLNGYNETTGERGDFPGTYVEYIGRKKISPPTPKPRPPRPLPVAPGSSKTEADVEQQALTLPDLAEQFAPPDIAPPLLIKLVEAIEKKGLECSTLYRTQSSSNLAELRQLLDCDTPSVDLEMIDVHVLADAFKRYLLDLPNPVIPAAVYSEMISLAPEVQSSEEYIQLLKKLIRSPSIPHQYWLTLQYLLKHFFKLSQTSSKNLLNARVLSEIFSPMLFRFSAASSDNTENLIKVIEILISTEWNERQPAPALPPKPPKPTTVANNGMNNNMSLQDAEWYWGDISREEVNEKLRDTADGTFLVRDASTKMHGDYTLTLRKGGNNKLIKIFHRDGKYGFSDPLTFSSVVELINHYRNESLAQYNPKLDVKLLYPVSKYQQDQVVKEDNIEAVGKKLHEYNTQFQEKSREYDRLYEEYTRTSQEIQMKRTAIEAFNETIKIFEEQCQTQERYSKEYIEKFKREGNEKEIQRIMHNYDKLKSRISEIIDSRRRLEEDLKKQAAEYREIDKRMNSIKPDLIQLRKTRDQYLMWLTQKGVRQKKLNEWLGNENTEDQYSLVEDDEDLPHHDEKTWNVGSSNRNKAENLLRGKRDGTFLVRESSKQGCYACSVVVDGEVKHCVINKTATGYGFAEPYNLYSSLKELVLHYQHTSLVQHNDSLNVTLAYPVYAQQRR

Q: With Cc1nc2ccc(-c3cc(NC(=O)c4cc(F)cc(C(F)(F)F)c4)c4c(c3)C(=O)NC4c3cc(F)ccc3Cl)cn2n1 (stereo not shown) [Compound I-1123] as the compound, how does the IC50 (H1047R PIK3CA enzyme) read?
A: ≤ 100 nM

Q: What about the IC50 (cells) of the same compound?
A: < 1000 nM

Q: With Nc1cc(NC(=O)c2cc(F)cc(C(F)(F)F)c2)c2c(c1)C(=O)NC2c1cc(F)ccc1C(F)F (stereo not shown) [Compound I-289] as the compound, how does the IC50 (H1047R PIK3CA enzyme) read?
A: ≤ 100 nM

Q: And the IC50 (cells)?
A: < 1000 nM

Q: Which IC50 (H1047R PIK3CA enzyme) does the source give for O=C(Nc1cc(-c2n[nH]c3ncccc23)cc2c1C(c1cc(F)ccc1Cl)NC2=O)c1cc(F)cc(C(F)(F)F)c1 (stereo not shown) [Compound I-939] here?
A: ≤ 100 nM

Q: And the IC50 (cells)?
A: < 1000 nM

Q: What does the source list for O=C1N[C@@H](c2cc(F)ccc2Cl)c2c(NC(=O)N3C[C@@H](O)c4ccc(F)cc43)cccc21 (stereo in doubt) [Compound I-2171]?
A: IC50 (H1047R PIK3CA enzyme): ≤ 100 nM; IC50 (cells): < 1000 nM

Q: What does the source list for COc1ccc(CNCc2cc(NC(=O)c3nsc4ccccc34)c3c(c2)C(=O)NC3c2cc(F)ccc2Cl)cc1 (stereo not shown) [Compound I-155]?
A: IC50 (H1047R PIK3CA enzyme): ≤ 100 nM; IC50 (cells): 1000 to 5000 nM

Q: For O=C(Nc1cc(-c2cc3ccccc3[nH]2)cc2c1C(c1cc(F)ccc1Cl)NC2=O)c1cc(F)cc(C(F)(F)F)c1 (stereo not shown) [Compound I-971], which IC50 (H1047R PIK3CA enzyme) is on record?
A: ≤ 100 nM

Q: What about the IC50 (cells) of the same compound?
A: < 1000 nM

Q: For CC(C)(O)c1cc(NC(=O)N2C[C@@H](O)c3ccccc32)c2c(c1)C(=O)N[C@H]2c1cc(F)ccc1Cl (single isomer, unassigned) [Compound I-2124], which IC50 (H1047R PIK3CA enzyme) is on record?
A: ≤ 100 nM

Q: What about the IC50 (cells) of the same compound?
A: 1000 to 5000 nM

Q: For O=C(Nc1cc(Br)cc2c1C(c1cc(F)ccc1C(F)(F)F)NC2=O)c1cc(F)cc(C(F)(F)F)c1 (stereo not shown) [Compound I-1014], which IC50 (H1047R PIK3CA enzyme) is on record?
A: ≤ 100 nM

Q: What about the IC50 (cells) of the same compound?
A: < 1000 nM

Q: With CC(C)(O)Cn1cc(-c2cc(NC(=O)c3cc(F)cc(C(F)(F)F)c3)c3c(c2)C(=O)NC3c2cc(F)ccc2Cl)cn1 (stereo not shown) [Compound I-968] as the compound, how does the IC50 (H1047R PIK3CA enzyme) read?
A: ≤ 100 nM

Q: What about the IC50 (cells) of the same compound?
A: < 1000 nM

Q: With O=C1NC(c2cc(F)ccc2Cl)c2c(NC(=O)c3nsc4ccccc34)cc(Br)cc21 (stereo not shown) [Compound I-144] as the compound, how does the IC50 (H1047R PIK3CA enzyme) read?
A: ≤ 100 nM

Q: And the IC50 (cells)?
A: 5000 to 10000 nM

Q: Which results are given for O=C(Nc1cc(Nc2nc3ccccc3[nH]2)cc2c1C(c1cc(F)ccc1Cl)NC2=O)c1cc(F)cc(C(F)(F)F)c1 (stereo not shown) [Compound I-993]?
A: IC50 (H1047R PIK3CA enzyme): ≤ 100 nM; IC50 (cells): 1000 to 5000 nM

Q: What does the source list for O=C(Nc1cc(-c2ccc3c(c2)C(=O)NCCO3)cc2c1C(c1cc(F)ccc1Cl)NC2=O)c1cc(F)cc(C(F)(F)F)c1 (stereo not shown) [Compound I-1048]?
A: IC50 (H1047R PIK3CA enzyme): ≤ 100 nM; IC50 (cells): < 1000 nM

Q: Which IC50 (H1047R PIK3CA enzyme) does the source give for O=C(Nc1cc(-n2cc(F)cn2)cc2c1C(c1cc(F)ccc1Cl)NC2=O)c1cc(F)cc(C(F)(F)F)c1 (stereo not shown) [Compound I-1146] here?
A: ≤ 100 nM

Q: And the IC50 (cells)?
A: < 1000 nM

Q: With CC(C)(CN)n1cc(-c2cc(NC(=O)c3cc(F)cc(C(F)(F)F)c3)c3c(c2)C(=O)NC3c2cc(F)ccc2Cl)cn1 (stereo not shown) [Compound I-2186] as the compound, how does the IC50 (H1047R PIK3CA enzyme) read?
A: ≤ 100 nM

Q: And the IC50 (cells)?
A: 1000 to 5000 nM

Q: For N#CCCc1cc(NC(=O)c2cc(F)cc(C(F)(F)F)c2)c2c(c1)C(=O)N[C@H]2c1cc(F)ccc1Cl (stereo in doubt) [Compound I-2169], which IC50 (H1047R PIK3CA enzyme) is on record?
A: ≤ 100 nM

Q: What about the IC50 (cells) of the same compound?
A: < 1000 nM

Q: Which IC50 (H1047R PIK3CA enzyme) does the source give for CNC(=O)c1cc(NC(=O)c2csc3ccccc23)c2c(c1)C(=O)NC2c1ccccc1C (racemic) [Compound I-6, 7-(Benzo[b]thiophene-3-carboxamido)-N-methyl-3-oxo-1-(o-tolyl)isoindoline-5-carboxamide] here?
A: ≤ 100 nM

Q: And the IC50 (cells)?
A: < 1000 nM

Q: With N#Cc1cnn(Cc2cc(NC(=O)N3C[C@](O)(C(F)(F)F)c4cc(F)ccc43)c3c(c2)C(=O)N[C@@H]3c2cc(F)ccc2Cl)c1 (single isomer, unassigned) [Compound I-2669] as the compound, how does the IC50 (H1047R PIK3CA enzyme) read?
A: ≤ 100 nM

Q: And the IC50 (cells)?
A: < 1000 nM

Q: Which results are given for O=C1N[C@@H](c2cc(F)ccc2Cl)c2c(NC(=O)N3C[C@@H](O)c4cc(F)ccc43)cc(-c3cnn(C(F)F)c3)cc21 (single isomer, unassigned) [Compound I-2477]?
A: IC50 (H1047R PIK3CA enzyme): ≤ 100 nM; IC50 (cells): < 1000 nM

Q: What does the source list for O=C1N[C@H](c2cc(F)ccc2Cl)c2c(NC(=O)N3C[C@](O)(C(F)(F)F)c4cc(F)ccc43)cc(C(F)F)cc21 (single isomer, unassigned) [Compound I-2579]?
A: IC50 (H1047R PIK3CA enzyme): ≤ 100 nM; IC50 (cells): < 1000 nM

Q: Which results are given for COc1nccc(-c2cc(NC(=O)c3cc(F)cc(C(F)(F)F)c3)c3c(c2)C(=O)NC3c2cc(F)ccc2Cl)n1 (stereo not shown) [Compound I-1105]?
A: IC50 (H1047R PIK3CA enzyme): ≤ 100 nM; IC50 (cells): < 1000 nM
